In US20240286998A1, “F[…], ANALOGUES THEREOF, AND METHODS USING SAME” (Saint Joseph's University, priority 2021, published 2024):

Molecular target: 5-HT2B (Homo sapiens (Human), UniProt P41595)
Test: 5-HT2B Gq-mediated calcium flux functional assay
Type: cell-based
Details: not given

Chain of 5-HT2B (P41595 whole entry): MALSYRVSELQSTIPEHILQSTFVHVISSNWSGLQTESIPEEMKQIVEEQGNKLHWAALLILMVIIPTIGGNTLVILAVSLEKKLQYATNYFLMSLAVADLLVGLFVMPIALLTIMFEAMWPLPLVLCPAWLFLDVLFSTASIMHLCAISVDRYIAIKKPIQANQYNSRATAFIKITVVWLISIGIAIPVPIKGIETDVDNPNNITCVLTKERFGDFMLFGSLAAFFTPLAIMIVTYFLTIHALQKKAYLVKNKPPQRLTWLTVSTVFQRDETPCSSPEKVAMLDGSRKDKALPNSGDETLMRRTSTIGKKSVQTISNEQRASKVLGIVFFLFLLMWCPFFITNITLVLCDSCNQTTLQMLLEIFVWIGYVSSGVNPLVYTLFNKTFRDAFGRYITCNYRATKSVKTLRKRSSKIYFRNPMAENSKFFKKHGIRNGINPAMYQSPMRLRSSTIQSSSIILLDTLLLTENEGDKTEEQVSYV

SMILES | EC50
CC(C)N(C)CCc1c[nH]c2ccc(F)cc12 [Example 2, N-(2-(5-fluoro-1H-indol-3-yl)ethyl)-N-methylpropan-2-amine] | 3.31 nM
CCCN(CCC)CCc1c[nH]c2ccc(F)cc12 [Example 5, N-(2-(5-fluoro-1H-indol-3-yl)ethyl)-N-propylpropan-1-amine] | 0.759 nM
CCCN(CC)CCc1c[nH]c2ccc(F)cc12 [Example 6, N-ethyl-N-(2-(5-fluoro-1H-indol-3-yl)ethyl)propan-1-amine] | 1.1 nM
C=CCN(C)CCc1c[nH]c2ccc(F)cc12 [Example 10, N-(2-(5-fluoro-1H-indol-3-yl)ethyl)-N-methylprop-2-en-1-amine] | 0.955 nM
CCN(C)CCc1c[nH]c2ccc(F)cc12 [Example 12, N-ethyl-2-(5-fluoro-1H-indol-3-yl)-N-methylethan-1-amine] | 2.29 nM
C=CCN(CCc1c[nH]c2ccc(F)cc12)C(C)CC (stereo not drawn) [compound 16, N-allyl-N-(2-(5-fluoro-1H-indol-3-yl)ethyl)butan-2-amine] | 2.09 nM
CCC(C)N(CC)CCc1c[nH]c2ccc(F)cc12 (stereo not drawn) [compound 30, N-ethyl-N-(2-(5-fluoro-1H-indol-3-yl)ethyl)butan-2-amine] | 3.47 nM

Same assay, conditions: IA = Inactive; N=1-3

SMILES | 5-HT2B-Ca2+ FLUX Emax (% 5-HT)
CC(C)N(C)CCc1c[nH]c2ccc(F)cc12 [Example 2, N-(2-(5-fluoro-1H-indol-3-yl)ethyl)-N-methylpropan-2-amine] | 68.6 ± 1.7 % 5-HT
CCCN(CCC)CCc1c[nH]c2ccc(F)cc12 [Example 5, N-(2-(5-fluoro-1H-indol-3-yl)ethyl)-N-propylpropan-1-amine] | 104.1 ± 0.7 % 5-HT
CCCN(CC)CCc1c[nH]c2ccc(F)cc12 [Example 6, N-ethyl-N-(2-(5-fluoro-1H-indol-3-yl)ethyl)propan-1-amine] | 101.2 ± 0.7 % 5-HT
C=CCN(C)CCc1c[nH]c2ccc(F)cc12 [Example 10, N-(2-(5-fluoro-1H-indol-3-yl)ethyl)-N-methylprop-2-en-1-amine] | 73.8 ± 2.3 % 5-HT
CCN(C)CCc1c[nH]c2ccc(F)cc12 [Example 12, N-ethyl-2-(5-fluoro-1H-indol-3-yl)-N-methylethan-1-amine] | 65.8 ± 1.6 % 5-HT
C=CCN(CCc1c[nH]c2ccc(F)cc12)C(C)CC (stereo not drawn) [compound 16, N-allyl-N-(2-(5-fluoro-1H-indol-3-yl)ethyl)butan-2-amine] | 97.4 ± 1.7 % 5-HT
CCC(C)N(CC)CCc1c[nH]c2ccc(F)cc12 (stereo not drawn) [compound 30, N-ethyl-N-(2-(5-fluoro-1H-indol-3-yl)ethyl)butan-2-amine] | 83.8 ± 2.1 % 5-HT

Molecular target: 5-HT1A (Homo sapiens (Human), UniProt P08908)
Test: 5-HT1A Gi/o-mediated cAMP inhibition, GloSensor assay
Type: cell-based
Details: not given

SMILES | EC50
CC(C)N(C)CCc1c[nH]c2ccc(F)cc12 [Example 2, N-(2-(5-fluoro-1H-indol-3-yl)ethyl)-N-methylpropan-2-amine] | 1820 nM
CCCN(CCC)CCc1c[nH]c2ccc(F)cc12 [Example 5, N-(2-(5-fluoro-1H-indol-3-yl)ethyl)-N-propylpropan-1-amine] | 74.1 nM
CCCN(CC)CCc1c[nH]c2ccc(F)cc12 [Example 6, N-ethyl-N-(2-(5-fluoro-1H-indol-3-yl)ethyl)propan-1-amine] | 49 nM
C=CCN(C)CCc1c[nH]c2ccc(F)cc12 [Example 10, N-(2-(5-fluoro-1H-indol-3-yl)ethyl)-N-methylprop-2-en-1-amine] | 89.1 nM
CCN(C)CCc1c[nH]c2ccc(F)cc12 [Example 12, N-ethyl-2-(5-fluoro-1H-indol-3-yl)-N-methylethan-1-amine] | 75.9 nM
C=CCN(CCc1c[nH]c2ccc(F)cc12)C(C)CC (stereo not drawn) [compound 16, N-allyl-N-(2-(5-fluoro-1H-indol-3-yl)ethyl)butan-2-amine] | 166 nM
CCC(C)N(CC)CCc1c[nH]c2ccc(F)cc12 (stereo not drawn) [compound 30, N-ethyl-N-(2-(5-fluoro-1H-indol-3-yl)ethyl)butan-2-amine] | 468 nM

Same assay, conditions: cAMP inhibition, 0.2 μM isoproterenol; IA = Inactive

SMILES | 5-HT1A-cAMP Emax (% 5-HT)
CC(C)N(C)CCc1c[nH]c2ccc(F)cc12 [Example 2, N-(2-(5-fluoro-1H-indol-3-yl)ethyl)-N-methylpropan-2-amine] | 93.2 ± 4.7 % 5-HT
CCCN(CCC)CCc1c[nH]c2ccc(F)cc12 [Example 5, N-(2-(5-fluoro-1H-indol-3-yl)ethyl)-N-propylpropan-1-amine] | 87.5 ± 1.6 % 5-HT
CCCN(CC)CCc1c[nH]c2ccc(F)cc12 [Example 6, N-ethyl-N-(2-(5-fluoro-1H-indol-3-yl)ethyl)propan-1-amine] | 90.5 ± 1.8 % 5-HT
C=CCN(C)CCc1c[nH]c2ccc(F)cc12 [Example 10, N-(2-(5-fluoro-1H-indol-3-yl)ethyl)-N-methylprop-2-en-1-amine] | 97.8 ± 2.7 % 5-HT
CCN(C)CCc1c[nH]c2ccc(F)cc12 [Example 12, N-ethyl-2-(5-fluoro-1H-indol-3-yl)-N-methylethan-1-amine] | 91.1 ± 1.7 % 5-HT
C=CCN(CCc1c[nH]c2ccc(F)cc12)C(C)CC (stereo not drawn) [compound 16, N-allyl-N-(2-(5-fluoro-1H-indol-3-yl)ethyl)butan-2-amine] | 94.2 ± 2.2 % 5-HT
CCC(C)N(CC)CCc1c[nH]c2ccc(F)cc12 (stereo not drawn) [compound 30, N-ethyl-N-(2-(5-fluoro-1H-indol-3-yl)ethyl)butan-2-amine] | 104.0 ± 3.1 % 5-HT

Molecular target: 5-HT2A (Homo sapiens (Human), UniProt P28223)
Test: 5-HT2A Gq-mediated calcium flux functional assay
Type: cell-based
Details: not given

SMILES | EC50
CC(C)N(C)CCc1c[nH]c2ccc(F)cc12 [Example 2, N-(2-(5-fluoro-1H-indol-3-yl)ethyl)-N-methylpropan-2-amine] | 1.95 nM
CCCN(CCC)CCc1c[nH]c2ccc(F)cc12 [Example 5, N-(2-(5-fluoro-1H-indol-3-yl)ethyl)-N-propylpropan-1-amine] | 0.724 nM
CCCN(CC)CCc1c[nH]c2ccc(F)cc12 [Example 6, N-ethyl-N-(2-(5-fluoro-1H-indol-3-yl)ethyl)propan-1-amine] | 0.776 nM
C=CCN(C)CCc1c[nH]c2ccc(F)cc12 [Example 10, N-(2-(5-fluoro-1H-indol-3-yl)ethyl)-N-methylprop-2-en-1-amine] | 0.479 nM
CCN(C)CCc1c[nH]c2ccc(F)cc12 [Example 12, N-ethyl-2-(5-fluoro-1H-indol-3-yl)-N-methylethan-1-amine] | 1.74 nM
C=CCN(CCc1c[nH]c2ccc(F)cc12)C(C)CC (stereo not drawn) [compound 16, N-allyl-N-(2-(5-fluoro-1H-indol-3-yl)ethyl)butan-2-amine] | 0.871 nM
CCC(C)N(CC)CCc1c[nH]c2ccc(F)cc12 (stereo not drawn) [compound 30, N-ethyl-N-(2-(5-fluoro-1H-indol-3-yl)ethyl)butan-2-amine] | 2.45 nM

Same assay, conditions: IA = Inactive; N=1-3

SMILES | 5-HT2A-Ca2+ FLUX Emax (% 5-HT)
CC(C)N(C)CCc1c[nH]c2ccc(F)cc12 [Example 2, N-(2-(5-fluoro-1H-indol-3-yl)ethyl)-N-methylpropan-2-amine] | 95.1 ± 0.8 % 5-HT
CCCN(CCC)CCc1c[nH]c2ccc(F)cc12 [Example 5, N-(2-(5-fluoro-1H-indol-3-yl)ethyl)-N-propylpropan-1-amine] | 106.7 ± 0.8 % 5-HT
CCCN(CC)CCc1c[nH]c2ccc(F)cc12 [Example 6, N-ethyl-N-(2-(5-fluoro-1H-indol-3-yl)ethyl)propan-1-amine] | 103.5 ± 0.8 % 5-HT
C=CCN(C)CCc1c[nH]c2ccc(F)cc12 [Example 10, N-(2-(5-fluoro-1H-indol-3-yl)ethyl)-N-methylprop-2-en-1-amine] | 100.3 ± 2.2 % 5-HT
CCN(C)CCc1c[nH]c2ccc(F)cc12 [Example 12, N-ethyl-2-(5-fluoro-1H-indol-3-yl)-N-methylethan-1-amine] | 101.8 ± 1.1 % 5-HT
C=CCN(CCc1c[nH]c2ccc(F)cc12)C(C)CC (stereo not drawn) [compound 16, N-allyl-N-(2-(5-fluoro-1H-indol-3-yl)ethyl)butan-2-amine] | 103.4 ± 1.8 % 5-HT
CCC(C)N(CC)CCc1c[nH]c2ccc(F)cc12 (stereo not drawn) [compound 30, N-ethyl-N-(2-(5-fluoro-1H-indol-3-yl)ethyl)butan-2-amine] | 93.2 ± 1.7 % 5-HT

Molecular target: 5-HT2C (Homo sapiens (Human), UniProt P28335)
Sequence (P28335 whole entry, looked up): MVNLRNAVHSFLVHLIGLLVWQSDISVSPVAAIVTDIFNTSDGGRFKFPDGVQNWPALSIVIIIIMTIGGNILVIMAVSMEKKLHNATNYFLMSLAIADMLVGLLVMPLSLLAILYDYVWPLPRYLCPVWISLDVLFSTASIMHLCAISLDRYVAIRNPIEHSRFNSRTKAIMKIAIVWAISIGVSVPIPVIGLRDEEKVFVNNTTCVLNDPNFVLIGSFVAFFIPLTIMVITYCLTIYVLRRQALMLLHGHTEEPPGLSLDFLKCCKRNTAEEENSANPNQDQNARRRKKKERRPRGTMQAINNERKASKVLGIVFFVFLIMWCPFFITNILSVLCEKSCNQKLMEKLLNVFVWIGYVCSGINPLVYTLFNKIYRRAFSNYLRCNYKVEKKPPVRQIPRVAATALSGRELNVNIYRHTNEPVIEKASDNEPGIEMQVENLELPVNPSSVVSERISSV
Test: 5-HT2C Gq-mediated calcium flux functional assay
Type: cell-based
Details: not given

SMILES | EC50
CC(C)N(C)CCc1c[nH]c2ccc(F)cc12 [Example 2, N-(2-(5-fluoro-1H-indol-3-yl)ethyl)-N-methylpropan-2-amine] | 21.9 nM
CCCN(CCC)CCc1c[nH]c2ccc(F)cc12 [Example 5, N-(2-(5-fluoro-1H-indol-3-yl)ethyl)-N-propylpropan-1-amine] | 3.39 nM
CCCN(CC)CCc1c[nH]c2ccc(F)cc12 [Example 6, N-ethyl-N-(2-(5-fluoro-1H-indol-3-yl)ethyl)propan-1-amine] | 1.78 nM
C=CCN(C)CCc1c[nH]c2ccc(F)cc12 [Example 10, N-(2-(5-fluoro-1H-indol-3-yl)ethyl)-N-methylprop-2-en-1-amine] | 3.02 nM
CCN(C)CCc1c[nH]c2ccc(F)cc12 [Example 12, N-ethyl-2-(5-fluoro-1H-indol-3-yl)-N-methylethan-1-amine] | 1.58 nM
C=CCN(CCc1c[nH]c2ccc(F)cc12)C(C)CC (stereo not drawn) [compound 16, N-allyl-N-(2-(5-fluoro-1H-indol-3-yl)ethyl)butan-2-amine] | 49 nM
CCC(C)N(CC)CCc1c[nH]c2ccc(F)cc12 (stereo not drawn) [compound 30, N-ethyl-N-(2-(5-fluoro-1H-indol-3-yl)ethyl)butan-2-amine] | 148 nM

Same assay, conditions: IA = Inactive; N=1-3

SMILES | 5-HT2C-Ca2+ FLUX Emax (% 5-HT)
CC(C)N(C)CCc1c[nH]c2ccc(F)cc12 [Example 2, N-(2-(5-fluoro-1H-indol-3-yl)ethyl)-N-methylpropan-2-amine] | 64.6 ± 1.7 % 5-HT
CCCN(CCC)CCc1c[nH]c2ccc(F)cc12 [Example 5, N-(2-(5-fluoro-1H-indol-3-yl)ethyl)-N-propylpropan-1-amine] | 109.3 ± 3.1 % 5-HT
CCCN(CC)CCc1c[nH]c2ccc(F)cc12 [Example 6, N-ethyl-N-(2-(5-fluoro-1H-indol-3-yl)ethyl)propan-1-amine] | 111.7 ± 2.5 % 5-HT
C=CCN(C)CCc1c[nH]c2ccc(F)cc12 [Example 10, N-(2-(5-fluoro-1H-indol-3-yl)ethyl)-N-methylprop-2-en-1-amine] | 97.4 ± 2.6 % 5-HT
CCN(C)CCc1c[nH]c2ccc(F)cc12 [Example 12, N-ethyl-2-(5-fluoro-1H-indol-3-yl)-N-methylethan-1-amine] | 117.2 ± 2.5 % 5-HT
C=CCN(CCc1c[nH]c2ccc(F)cc12)C(C)CC (stereo not drawn) [compound 16, N-allyl-N-(2-(5-fluoro-1H-indol-3-yl)ethyl)butan-2-amine] | 84.3 ± 3.4 % 5-HT
CCC(C)N(CC)CCc1c[nH]c2ccc(F)cc12 (stereo not drawn) [compound 30, N-ethyl-N-(2-(5-fluoro-1H-indol-3-yl)ethyl)butan-2-amine] | 72.2 ± 2.9 % 5-HT

Molecular target: Serotonin 5-HT2A (human) (Homo sapiens (Human), UniProt P28223)
Test: 5-HT2A receptor binding, [3H]-ketanserin competition in membrane fractions
Details: not given

SMILES | Ki
C=CCN(C)CCc1c[nH]c2ccc(F)cc12 [Example 10, N-(2-(5-fluoro-1H-indol-3-yl)ethyl)-N-methylprop-2-en-1-amine] | 309 nM
C=CCN(CCc1c[nH]c2ccc(F)cc12)C(C)CC (stereo not drawn) [compound 16, N-allyl-N-(2-(5-fluoro-1H-indol-3-yl)ethyl)butan-2-amine] | 1660 nM

Same assay, conditions: 1 nM [3H]-ketanserin, Cheng-Prusoff, N=1-3

SMILES | 5-HT2A pKi ± SEM
CC(C)N(C)CCc1c[nH]c2ccc(F)cc12 [Example 2, N-(2-(5-fluoro-1H-indol-3-yl)ethyl)-N-methylpropan-2-amine] | 6.36 ± 0.003
CCCN(CCC)CCc1c[nH]c2ccc(F)cc12 [Example 5, N-(2-(5-fluoro-1H-indol-3-yl)ethyl)-N-propylpropan-1-amine] | 6.20
CCCN(CC)CCc1c[nH]c2ccc(F)cc12 [Example 6, N-ethyl-N-(2-(5-fluoro-1H-indol-3-yl)ethyl)propan-1-amine] | 6.06 ± 0.13
CCN(C)CCc1c[nH]c2ccc(F)cc12 [Example 12, N-ethyl-2-(5-fluoro-1H-indol-3-yl)-N-methylethan-1-amine] | 6.66 ± 0.12
CCC(C)N(CC)CCc1c[nH]c2ccc(F)cc12 (stereo not drawn) [compound 30, N-ethyl-N-(2-(5-fluoro-1H-indol-3-yl)ethyl)butan-2-amine] | 5.70 ± 0.39
